Data published in patent US4471131A, “Novel silyl esters of N-phosphonomethylglycine” (Monsanto Company, priority 1983, dated 1984).

Experiments:
Assay in all cases: post-emergence herbicidal activity, greenhouse
Assay type in all cases: in vivo
Sugar Beet = conditions: Table III
How it was run: (§1)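 Candidate chemical is applied by atomizer at the indicated rates to emerged plants of 2–3 weeks, spray containing about 0.4 wt% emulsifier. Effects are judged as injury against unsprayed control pans, approximately two and four weeks post-application.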

Wild Buckwheat = conditions: Table III
How it was run: as §1

Canada Thistle = conditions: Table II
How it was run: as §1

Common Lambsquarters = test system: Common Lambsquarters
How it was run: as §1

Johnsongrass = conditions: Table II
How it was run: as §1

Cocklebur = test system: Cocklebur
How it was run: as §1

[1] = 2 WAT, 1.1 kg/h, formulated in anhydrous tetrahydrofuran
[2] = 2 WAT, 5.6 kg/h, formulated in anhydrous tetrahydrofuran
[3] = 2 WAT, .28 kg/h, formulated in anhydrous tetrahydrofuran
[4] = 4 WAT, 1.1 kg/h, formulated in anhydrous tetrahydrofuran
[5] = 4 WAT, 5.6 kg/h, formulated in anhydrous tetrahydrofuran
[6] = 4 WAT, .28 kg/h, formulated in anhydrous tetrahydrofuran
[7] = 2 WAT, 11.2 kg/h, formulated in anhydrous tetrahydrofuran
[8] = 4 WAT, 11.2 kg/h, formulated in anhydrous tetrahydrofuran
[9] = Table II, 2 WAT, 5.6 kg/h, formulated in anhydrous tetrahydrofuran
[10] = Table II, 2 WAT, 11.2 kg/h, formulated in anhydrous tetrahydrofuran
[11] = Table II, 4 WAT, 5.6 kg/h, formulated in anhydrous tetrahydrofuran
[12] = Table II, 4 WAT, 11.2 kg/h, formulated in anhydrous tetrahydrofuran

CCCCOC(=O)CNCP(=O)(O)O[Si](c1ccccc1)(c1ccccc1)C(C)(C)C [Ex. 6, Glycine, N--((([(1,1-Dimethylethyl)Diphenylsilyl]Oxy)Hydroxyphosphinyl)methyl)-Butyl Ester]
Plant Response Index (M) (Sugar Beet; 2 WAT, 1.1 kg/h): 1 (25-49% inhibition)
Plant Response Index (M) (Sugar Beet; [1]): 1 (25-49% inhibition)
Plant Response Index (M) (Sugar Beet; 2 WAT, 5.6 kg/h): 2 (50-74% inhibition)
Plant Response Index (M) (Sugar Beet; [2]): 1 (25-49% inhibition)
Plant Response Index (M) (Sugar Beet; 2 WAT, .28 kg/h): 0 (0-24% inhibition)
Plant Response Index (M) (Sugar Beet; [3]): 0 (0-24% inhibition)
Plant Response Index (M) (Sugar Beet; 4 WAT, 1.1 kg/h): 1 (25-49% inhibition)
Plant Response Index (M) (Sugar Beet; [4]): 1 (25-49% inhibition)
Plant Response Index (M) (Sugar Beet; 4 WAT, 5.6 kg/h): 3 (75-99% inhibition)
Plant Response Index (M) (Sugar Beet; [5]): 1 (25-49% inhibition)
Plant Response Index (M) (Sugar Beet; [6]): 0 (0-24% inhibition)
Plant Response Index (Q) (Wild Buckwheat; 2 WAT, 1.1 kg/h): 2 (50-74% inhibition)
Plant Response Index (Q) (Wild Buckwheat; [1]): 2 (50-74% inhibition)
Plant Response Index (Q) (Wild Buckwheat; 2 WAT, 5.6 kg/h): 2 (50-74% inhibition)
Plant Response Index (Q) (Wild Buckwheat; [2]): 2 (50-74% inhibition)
Plant Response Index (Q) (Wild Buckwheat; 2 WAT, .28 kg/h): 1 (25-49% inhibition)
Plant Response Index (Q) (Wild Buckwheat; [3]): 1 (25-49% inhibition)
Plant Response Index (Q) (Wild Buckwheat; 4 WAT, 1.1 kg/h): 1 (25-49% inhibition)
Plant Response Index (Q) (Wild Buckwheat; [4]): 2 (50-74% inhibition)
Plant Response Index (Q) (Wild Buckwheat; 4 WAT, 5.6 kg/h): 3 (75-99% inhibition)
Plant Response Index (Q) (Wild Buckwheat; [5]): 2 (50-74% inhibition)
Plant Response Index (Q) (Wild Buckwheat; [6]): 1 (25-49% inhibition)
Plant Response Index (A) (Canada Thistle; 2 WAT, 5.6 kg/h): 0 (0-24% inhibition)
Plant Response Index (A) (Canada Thistle; [2]): 0 (0-24% inhibition)
Plant Response Index (A) (Canada Thistle; 2 WAT, 11.2 kg/h): 3 (75-99% inhibition)
Plant Response Index (A) (Canada Thistle; [7]): 0 (0-24% inhibition)
Plant Response Index (A) (Canada Thistle; 4 WAT, 5.6 kg/h): 1 (25-49% inhibition)
Plant Response Index (A) (Canada Thistle; [5]): 0 (0-24% inhibition)
Plant Response Index (A) (Canada Thistle; 4 WAT, 11.2 kg/h): 4 (100% inhibition)
Plant Response Index (A) (Canada Thistle; [8]): 1 (25-49% inhibition)
Plant Response Index (E) (Common Lambsquarters; Table II, 2 WAT, 5.6 kg/h): 2 (50-74% inhibition)
Plant Response Index (E) (Common Lambsquarters; [9]): 1 (25-49% inhibition)
Plant Response Index (E) (Common Lambsquarters; Table II, 2 WAT, 11.2 kg/h): 3 (75-99% inhibition)
Plant Response Index (E) (Common Lambsquarters; [10]): 3 (75-99% inhibition)
Plant Response Index (E) (Common Lambsquarters; Table II, 4 WAT, 5.6 kg/h): 2 (50-74% inhibition)
Plant Response Index (E) (Common Lambsquarters; [11]): 3 (75-99% inhibition)
Plant Response Index (E) (Common Lambsquarters; Table II, 4 WAT, 11.2 kg/h): 4 (100% inhibition)
Plant Response Index (E) (Common Lambsquarters; [12]): 4 (100% inhibition)
Plant Response Index (E) (Common Lambsquarters; Table III, 2 WAT, 1.1 kg/h): 3 (75-99% inhibition)
Plant Response Index (E) (Common Lambsquarters; Table III, 2 WAT, 1.1 kg/h, formulated in anhydrous tetrahydrofuran): 3 (75-99% inhibition)
Plant Response Index (E) (Common Lambsquarters; Table III, 2 WAT, 5.6 kg/h): 3 (75-99% inhibition)
Plant Response Index (E) (Common Lambsquarters; Table III, 2 WAT, 5.6 kg/h, formulated in anhydrous tetrahydrofuran): 3 (75-99% inhibition)
Plant Response Index (E) (Common Lambsquarters; Table III, 2 WAT, .28 kg/h): 3 (75-99% inhibition)
Plant Response Index (E) (Common Lambsquarters; Table III, 2 WAT, .28 kg/h, formulated in anhydrous tetrahydrofuran): 1 (25-49% inhibition)
Plant Response Index (E) (Common Lambsquarters; Table III, 4 WAT, 1.1 kg/h): 3 (75-99% inhibition)
Plant Response Index (E) (Common Lambsquarters; Table III, 4 WAT, 1.1 kg/h, formulated in anhydrous tetrahydrofuran): 4 (100% inhibition)
Plant Response Index (E) (Common Lambsquarters; Table III, 4 WAT, 5.6 kg/h): 3 (75-99% inhibition)
Plant Response Index (E) (Common Lambsquarters; Table III, 4 WAT, 5.6 kg/h, formulated in anhydrous tetrahydrofuran): 4 (100% inhibition)
Plant Response Index (E) (Common Lambsquarters; Table III, 4 WAT, .28 kg/h, formulated in anhydrous tetrahydrofuran): 1 (25-49% inhibition)
Plant Response Index (I) (Johnsongrass; 2 WAT, 5.6 kg/h): 0 (0-24% inhibition)
Plant Response Index (I) (Johnsongrass; [2]): 0 (0-24% inhibition)
Plant Response Index (I) (Johnsongrass; 2 WAT, 11.2 kg/h): 1 (25-49% inhibition)
Plant Response Index (I) (Johnsongrass; [7]): 0 (0-24% inhibition)
Plant Response Index (I) (Johnsongrass; 4 WAT, 5.6 kg/h): 2 (50-74% inhibition)
Plant Response Index (I) (Johnsongrass; [5]): 1 (25-49% inhibition)
Plant Response Index (I) (Johnsongrass; 4 WAT, 11.2 kg/h): 0 (0-24% inhibition)
Plant Response Index (I) (Johnsongrass; [8]): 1 (25-49% inhibition)
Plant Response Index (B) (Cocklebur; Table II, 2 WAT, 5.6 kg/h): 1 (25-49% inhibition)
Plant Response Index (B) (Cocklebur; [9]): 1 (25-49% inhibition)
Plant Response Index (B) (Cocklebur; Table II, 2 WAT, 11.2 kg/h): 2 (50-74% inhibition)
Plant Response Index (B) (Cocklebur; [10]): 1 (25-49% inhibition)
Plant Response Index (B) (Cocklebur; Table II, 4 WAT, 5.6 kg/h): 1 (25-49% inhibition)
Plant Response Index (B) (Cocklebur; [11]): 1 (25-49% inhibition)
Plant Response Index (B) (Cocklebur; Table II, 4 WAT, 11.2 kg/h): 2 (50-74% inhibition)
Plant Response Index (B) (Cocklebur; [12]): 2 (50-74% inhibition)
Plant Response Index (B) (Cocklebur; Table III, 2 WAT, 1.1 kg/h): 2 (50-74% inhibition)
